Results reported in US4992448A, “Benzocycloalkylaminopyridinamines and related compounds as topical antiinflammatory agents for the treatment of skin disorders” (Hoechst-Roussel Pharmaceuticals Inc., priority 1989, dated 1991).

Assays:
[1] = tested on: ear edema induced by topical application of TPA; test: TPA-Induced Ear Edema (TPAEE); format: in vivo, Female Swiss WEbster mice; conditions: for TPAEE (10 μg): 10 μg/ear test compound topical, TPA 10 μg/ear, ear punch weight after five hours
Method: TPA-Induced Ear Edema (TPAEE) The purpose of this assay was to determine the ability of a topically-applied compound to prevent ear edema induced by topical application of TPA (phorbol 12/myristate acetate). Female Swiss WEbster mice topically received TPA (10μg/ear) on the right ear and vehicle on the left ear. The test compound (10μg/ear) was applied to both ears. After five hours, the animals were sacrificed and an ear punch (4 mm) was taken from each ear. The difference in right and left ear punch weights for each animal was determined to uses activity. […] See Yound, J. M. et. al., J. Invest.

porcine pancreatic PLA2 = porcine pancreatic PLA2 (Sus scrofa, UniProt P00592); test: In Vitro Phospholipase A2 Assay (PLA2); format: biochemical; conditions: 0.01 M test compound; porcine pancreatic PLA2 (3.2 units), pH 8.0, 37° C.
Chain of porcine pancreatic PLA2 (P00592 23-146): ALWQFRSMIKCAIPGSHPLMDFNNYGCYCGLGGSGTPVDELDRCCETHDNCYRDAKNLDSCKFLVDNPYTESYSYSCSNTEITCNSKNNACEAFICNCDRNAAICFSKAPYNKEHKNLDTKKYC
Method: In Vitro Phospholipase A2 Assay (PLA2) The ability of a compound to modulate PLA2 activity (clevage of ^14 -dipalmitoyl phosphotidylcholine at the 2-position to ^14 C-palmitic acid) was quantitated in this assay. […] The reaction was run at 37° C. in a shaking incubator. The reaction was quenched and an internal standard was added in order to determine sample recovery. The samples were loaded onto D18 columns, eluted with ethanol, and the radioactivity was then measured.

[2] = tested on: Phospholipase A2 -induced paw edema; test: Phospholipase A2-induced Paw Edema (PIPE); format: in vivo, male Wistar rats; conditions: for PIPE (0.1 M), difference in edema vs. control: 0.1 M test compound injected with PLA2 (3 units/paw), subplantar, rat left hind paw, two hours post administration
Method: Phospholipase A2 -induced Paw Edema (PIPE) A2 -induced paw edema in male Wistar rats (100-125 g) was measured. PLA2 (3 units/paw) alone or with 0.1 M of the test compound was injected in the subplantar region of the rat left hind paw. Immediately subsequent to the injection and at two hours post administration the paw was immersed in a mercury bath, and paw displacement was measured on a recorder via a transducer. […] See Giessler, A. J. et. al., Agents and Actions, Vol. 10, Trends in Inflammation Research (1981), p. 195.

SMILES	TPAEE (10 μg) [1] [%]	inhibition at 10000 µM (porcine pancreatic PLA2) [%]	PIPE (0.1 M), difference in edema vs. control [2] [%]	ED50 (TPAEE standard) ([1]; standard, TPA-induced mouse ear edema, topical) [μg/ear]	ED50 (PIPE standard) ([2]; standard, PLA2-induced rat paw edema) [M]
Nc1cnccc1N1CCc2ccccc21 [1-(3-Amino-4-pyridinyl)-2,3-dihydro-1H-indole]	-74	42	-34	–	–
Nc1ccncc1N1CCc2ccccc21 [1-(4-Amino-3-pyridinyl)-2,3-dihydro-1H-indole]	-35	85	-33	–	–
Nc1cc[n+]([O-])cc1N1CCc2ccccc2C1	-45	59	-42	–	–
C[C@]12CCC(=O)C=C1CC[C@@H]1[C@@H]2[C@@H](O)C[C@@]2(C)[C@H]1CC[C@]2(O)C(=O)CO [hydrocortisone, reference compound]	–	–	–	47	0.46
